The target of this assay is T1, BCL6 (Homo sapiens, UniProt P41182).
T1 construct: endogenous in cells; host or cells: T47D breast cancer epithelial cells
Nature of the assay: Immunofluorescence protocol for high content imaging of BCL6 (degradation) in T47D cells, 3 days compound treatment. The format is cell-based. The conditions noted are these: for Dmax: T47D, read-out: Mean Dmax (%)** category; for DC50: read-out: Mean DC50 (nM)* category. In outline: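 High content immunofluorescence imaging (10×, 4 fields/well) of BCL6 using rabbit primary antibody, Alexa-488 secondary, cell mask and Hoechst nuclear stain after PFA fixation. Before staining, T47D cells (7K/well) were exposed for 3 days at 37° C to 3-fold serial dilutions of compound, top final concentration 0.1 or 1 μM.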

Molecules are shown by their SMILES.

This note sets out measurements from patent US11986532B2 (Arvinas Operations, Inc., priority 2021, dated 2024).

One may read the Dmax as the largest share of the target that was removed. By DC50 is commonly meant the concentration giving 50% degradation.

In the case of `CC[C@@H]1CN([C@H]2C[C@H](OC3CCN(c4ncc(Cl)c(Nc5ccc6c(c5)cc(OCC(=O)NC)c(=O)n6C(C)C)n4)CC3)C2)CCN1c1ccc2c(c1C)C(=O)N(C1CCC(=O)NC1=O)C2=O` (stereo partly drawn) [Compound 287, 2-({6-[(5-chloro-2-{4-[(1r,3r)-3-[(3R)-4-[2-(2,6-dioxopiperidin-3-yl)-4-methyl-1,3-dioxo-2,3-dihydro-1H-isoindol-5-yl]-3-ethylpiperazin-1-yl]cyclobutoxy]piperidin-1-yl}pyrimidin-4-yl)amino]-2-oxo-1-(propan-2-yl)-1,2-dihydroquinolin-3-yl}oxy)-N-methylacetamide], the greatest degradation seen (Dmax) is at least 70% and the 50% degradation concentration (DC50) is under 10 nM.

With `CNC(=O)COc1cc2cc(Nc3nc(N4CCC(O[C@H]5C[C@H](N6CCC(c7ccc8c(c7F)[C@@H](C)N([C@H]7CCC(=O)NC7=O)C8=O)CC6)C5)CC4)ncc3Cl)ccc2n(C(C)C)c1=O` [Compound 288, 2-({6-[(5-chloro-2-{4-[(1r,3r)-3-{4-[(3R)-2-[(3S)-2,6-dioxopiperidin-3-yl]-4-fluoro-3-methyl-1-oxo-2,3-dihydro-1H-isoindol-5-yl]piperidin-1-yl}cyclobutoxy]piperidin-1-yl}pyrimidin-4-yl)amino]-2-oxo-1-(propan-2-yl)-1,2-dihydroquinolin-3-yl}oxy)-N-methylacetamide], the maximal degradation (Dmax) is under 50% and the DC50 was 10 to 50 nM.

In the case of `CNC(=O)COc1cc2cc(Nc3nc(N4CCC(O[C@H]5C[C@H](N6CCC(c7ccc8c(c7F)[C@@H](C)N(C7CCC(=O)NC7=O)C8=O)CC6)C5)CC4)ncc3Cl)ccc2n(C(C)C)c1=O` (stereo partly drawn) [Compound 289, 2-({6-[(5-chloro-2-{4-[(1r,3r)-3-{4-[(3R)-2-(2,6-dioxopiperidin-3-yl)-4-fluoro-3-methyl-1-oxo-2,3-dihydro-1H-isoindol-5-yl]piperidin-1-yl}cyclobutoxy]piperidin-1-yl}pyrimidin-4-yl)amino]-2-oxo-1-(propan-2-yl)-1,2-dihydroquinolin-3-yl}oxy)-N-methylacetamide], the Dmax is at least 70% and the 50% degradation concentration (DC50) was under 10 nM.

Take `CNC(=O)COc1cc2cc(Nc3nc(N4CCC(O[C@H]5C[C@H](N6CCC(c7ccc8c(c7F)[C@H](C)N([C@H]7CCC(=O)NC7=O)C8=O)CC6)C5)CC4)ncc3Cl)ccc2n(C(C)C)c1=O` [Compound 290, 2-({6-[(5-chloro-2-{4-[(1r,3r)-3-{4-[(3S)-2-[(3S)-2,6-dioxopiperidin-3-yl]-4-fluoro-3-methyl-1-oxo-2,3-dihydro-1H-isoindol-5-yl]piperidin-1-yl}cyclobutoxy]piperidin-1-yl}pyrimidin-4-yl)amino]-2-oxo-1-(propan-2-yl)-1,2-dihydroquinolin-3-yl}oxy)-N-methylacetamide]: the Dmax is at least 70% and the DC50 was under 10 nM.

Regarding `CNC(=O)COc1cc2cc(Nc3nc(N4CCC(O[C@H]5C[C@H](N6CCC(c7ccc8c(c7F)[C@H](C)N(C7CCC(=O)NC7=O)C8=O)CC6)C5)CC4)ncc3Cl)ccc2n(C(C)C)c1=O` (stereo partly drawn) [Compound 291, 2-({6-[(5-chloro-2-{4-[(1r,3r)-3-{4-[(3S)-2-(2,6-dioxopiperidin-3-yl)-4-fluoro-3-methyl-1-oxo-2,3-dihydro-1H-isoindol-5-yl]piperidin-1-yl}cyclobutoxy]piperidin-1-yl}pyrimidin-4-yl)amino]-2-oxo-1-(propan-2-yl)-1,2-dihydroquinolin-3-yl}oxy)-N-methylacetamide], the greatest degradation seen (Dmax) is at least 70% and the DC50 is under 10 nM.

`CNC(=O)COc1cc2cc(Nc3nc(N4CCC(O[C@H]5C[C@H](N6CC[C@@H](c7ccc8c(c7F)CN([C@H]7CCC(=O)NC7=O)C8=O)C[C@@H]6C)C5)CC4)ncc3Cl)ccc2n(C(C)C)c1=O` [Compound 292, 2-({6-[(5-chloro-2-{4-[(1r,3r)-3-[(2S,4R)-4-{2-[(3S)-2,6-dioxopiperidin-3-yl]-4-fluoro-1-oxo-2,3-dihydro-1H-isoindol-5-yl}-2-methylpiperidin-1-yl]cyclobutoxy]piperidin-1-yl}pyrimidin-4-yl)amino]-2-oxo-1-(propan-2-yl)-1,2-dihydroquinolin-3-yl}oxy)-N-methylacetamide]: the Dmax is at least 70% and the DC50 was under 10 nM.

`CNC(=O)COc1cc2cc(Nc3nc(N4CCC(O[C@H]5C[C@H](N6CC[C@H](c7ccc8c(c7F)CN([C@H]7CCC(=O)NC7=O)C8=O)C[C@@H]6C)C5)CC4)ncc3Cl)ccc2n(C(C)C)c1=O` [Compound 293, 2-({6-[(5-chloro-2-{4-[(1r,3r)-3-[(2S,4S)-4-{2-[(3S)-2,6-dioxopiperidin-3-yl]-4-fluoro-1-oxo-2,3-dihydro-1H-isoindol-5-yl}-2-methylpiperidin-1-yl]cyclobutoxy]piperidin-1-yl}pyrimidin-4-yl)amino]-2-oxo-1-(propan-2-yl)-1,2-dihydroquinolin-3-yl}oxy)-N-methylacetamide]: the Dmax is 50 to 70% and the DC50 was under 10 nM.

Turning to `CNC(=O)COc1cc2cc(Nc3nc(N4CCC(O[C@H]5C[C@H](N6CC[C@@H](c7ccc8c(c7F)CN([C@H]7CCC(=O)NC7=O)C8=O)C[C@H]6C)C5)CC4)ncc3Cl)ccc2n(C(C)C)c1=O` [Compound 294, 2-({6-[(5-chloro-2-{4-[(1r,3r)-3-[(2R,4R)-4-{2-[(3S)-2,6-dioxopiperidin-3-yl]-4-fluoro-1-oxo-2,3-dihydro-1H-isoindol-5-yl}-2-methylpiperidin-1-yl]cyclobutoxy]piperidin-1-yl}pyrimidin-4-yl)amino]-2-oxo-1-(propan-2-yl)-1,2-dihydroquinolin-3-yl}oxy)-N-methylacetamide], the Dmax is at least 70% and the DC50 is under 10 nM.

Take `CNC(=O)COc1cc2cc(Nc3nc(N4CCC(O[C@H]5C[C@H](N6CC[C@H](c7ccc8c(c7F)CN([C@H]7CCC(=O)NC7=O)C8=O)C[C@H]6C)C5)CC4)ncc3Cl)ccc2n(C(C)C)c1=O` [Compound 295, 2-({6-[(5-chloro-2-{4-[(1r,3r)-3-[(2R,4S)-4-{2-[(3S)-2,6-dioxopiperidin-3-yl]-4-fluoro-1-oxo-2,3-dihydro-1H-isoindol-5-yl}-2-methylpiperidin-1-yl]cyclobutoxy]piperidin-1-yl}pyrimidin-4-yl)amino]-2-oxo-1-(propan-2-yl)-1,2-dihydroquinolin-3-yl}oxy)-N-methylacetamide]: the Dmax is at least 70% and the DC50 is under 10 nM.

Consider `CNC(=O)COc1cc2cc(Nc3nc(N4CCN(CC5CCN(c6c(F)ccc7c6CN(C6CCC(=O)NC6=O)C7=O)CC5)CC4)ncc3Cl)ccc2n(C(C)C)c1=O` (stereo not shown) [Compound 297, 2-{[6-({5-chloro-2-[4-({1-[2-(2,6-dioxopiperidin-3-yl)-5-fluoro-1-oxo-2,3-dihydro-1H-isoindol-4-yl]piperidin-4-yl}methyl)piperazin-1-yl]pyrimidin-4-yl}amino)-2-oxo-1-(propan-2-yl)-1,2-dihydroquinolin-3-yl]oxy}-N-methylacetamide], for which the Dmax is 50 to 70% and the half-maximal degradation concentration (DC50) is under 10 nM.

As for `CNC(=O)COc1cc2cc(Nc3nc(N4CCC(OC5CCC6(CC5)CN(c5c(F)ccc7c5CN(C5CCC(=O)NC5=O)C7=O)C6)CC4)ncc3Cl)ccc2n(C(C)C)c1=O` (stereo not shown) [Compound 298, 2-{[6-({5-chloro-2-[4-({2-[2-(2,6-dioxopiperidin-3-yl)-5-fluoro-1-oxo-2,3-dihydro-1H-isoindol-4-yl]-2-azaspiro[3.5]nonan-7-yl}oxy)piperidin-1-yl]pyrimidin-4-yl}amino)-2-oxo-1-(propan-2-yl)-1,2-dihydroquinolin-3-yl]oxy}-N-methylacetamide], the greatest degradation seen (Dmax) is 50 to 70% and the 50% degradation concentration (DC50) was under 10 nM.
